Measured values from US10035801B2, “Pyrazolo compounds and uses thereof” (CONSTELLATION PHARMACEUTICALS, INC., priority 2013, dated 2018).

target: T1, KDM5A (Homo sapiens, UniProt P29375); assay: KDM5 enzyme assay, KDM5A HTRF (Example 463); assay type: biochemical; conditions: not given
T1 construct: Full length KDM5A enzyme was expressed and purified inhouse; made in house
T1 sequence (P29375 whole entry): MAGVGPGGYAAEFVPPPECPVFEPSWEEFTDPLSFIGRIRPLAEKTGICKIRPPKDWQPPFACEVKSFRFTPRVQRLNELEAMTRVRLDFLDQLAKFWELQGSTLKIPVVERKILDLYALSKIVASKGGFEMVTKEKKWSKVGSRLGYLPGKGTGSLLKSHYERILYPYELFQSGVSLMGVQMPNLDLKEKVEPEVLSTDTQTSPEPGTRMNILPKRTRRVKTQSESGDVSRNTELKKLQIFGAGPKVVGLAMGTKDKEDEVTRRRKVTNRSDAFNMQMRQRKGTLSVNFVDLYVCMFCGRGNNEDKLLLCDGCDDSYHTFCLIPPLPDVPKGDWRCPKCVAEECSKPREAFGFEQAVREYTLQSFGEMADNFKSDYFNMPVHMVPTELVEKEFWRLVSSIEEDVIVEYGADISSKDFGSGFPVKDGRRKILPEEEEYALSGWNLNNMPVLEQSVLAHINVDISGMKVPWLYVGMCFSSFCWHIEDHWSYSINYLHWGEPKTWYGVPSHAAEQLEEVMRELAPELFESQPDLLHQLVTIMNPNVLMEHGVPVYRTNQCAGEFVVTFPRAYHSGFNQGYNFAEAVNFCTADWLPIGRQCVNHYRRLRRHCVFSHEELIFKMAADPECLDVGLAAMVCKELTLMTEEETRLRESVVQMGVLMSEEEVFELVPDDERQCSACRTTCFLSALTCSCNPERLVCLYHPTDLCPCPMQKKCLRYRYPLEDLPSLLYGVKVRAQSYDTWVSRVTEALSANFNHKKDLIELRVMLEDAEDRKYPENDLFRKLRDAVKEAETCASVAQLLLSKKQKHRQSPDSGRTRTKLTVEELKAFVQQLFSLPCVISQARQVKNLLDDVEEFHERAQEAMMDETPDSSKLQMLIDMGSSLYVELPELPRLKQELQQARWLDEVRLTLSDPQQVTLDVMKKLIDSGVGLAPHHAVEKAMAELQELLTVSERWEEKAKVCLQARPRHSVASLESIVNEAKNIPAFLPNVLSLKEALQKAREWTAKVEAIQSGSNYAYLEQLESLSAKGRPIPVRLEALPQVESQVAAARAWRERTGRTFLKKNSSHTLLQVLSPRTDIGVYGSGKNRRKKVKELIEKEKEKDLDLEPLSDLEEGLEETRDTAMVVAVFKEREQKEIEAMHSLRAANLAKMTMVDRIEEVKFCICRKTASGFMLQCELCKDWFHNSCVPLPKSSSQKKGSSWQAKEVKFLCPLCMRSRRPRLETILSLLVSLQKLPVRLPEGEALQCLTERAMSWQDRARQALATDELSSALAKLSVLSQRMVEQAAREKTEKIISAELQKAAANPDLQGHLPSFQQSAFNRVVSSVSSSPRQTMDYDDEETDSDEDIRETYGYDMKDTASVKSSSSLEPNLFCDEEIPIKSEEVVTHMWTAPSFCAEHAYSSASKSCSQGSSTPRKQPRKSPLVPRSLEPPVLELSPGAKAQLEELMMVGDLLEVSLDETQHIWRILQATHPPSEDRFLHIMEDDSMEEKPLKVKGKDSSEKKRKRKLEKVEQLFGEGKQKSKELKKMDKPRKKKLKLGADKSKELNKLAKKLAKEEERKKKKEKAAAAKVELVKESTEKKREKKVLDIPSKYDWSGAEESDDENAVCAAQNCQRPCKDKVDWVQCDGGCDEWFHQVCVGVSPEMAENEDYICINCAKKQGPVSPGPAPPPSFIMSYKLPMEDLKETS

SMILES	IC50
CC(C)c1c(-c2cccnc2)[nH]c2c(C#N)cnn2c1=O [Example 91]	12 nM

same assay, conditions: compounds of Examples 1-432; read-out: Example 463 Assay KDM5A HTRF IC50

SMILES	IC50
CC(C)c1c(-c2cncnc2)[nH]c2c(C#N)cnn2c1=O [Example 61]	10 nM
Cc1cncc(-c2[nH]c3c(C#N)cnn3c(=O)c2C(C)C)c1 [Example 62]	12 nM
CC(C)c1c(-c2ccn(C)n2)[nH]c2c(C#N)cnn2c1=O [Example 63]	15 nM
CC(C)c1c(-c2ccccc2F)[nH]c2c(C#N)cnn2c1=O [Example 66]	14 nM
CC(C)c1c(-c2ccc(C#N)cc2)[nH]c2c(C#N)cnn2c1=O [Example 67]	10 nM
COc1ccc(-c2[nH]c3c(C#N)cnn3c(=O)c2C(C)C)cc1 [Example 68]	13 nM
CC(C)c1c(-c2ccc(C(F)(F)F)cc2)[nH]c2c(C#N)cnn2c1=O [Example 69]	21 nM
CC(C)c1c(-c2ccc(F)cc2)[nH]c2c(C#N)cnn2c1=O [Example 70]	7.8 nM
CCc1c(-c2cnn(Cc3ccccc3)c2)[nH]c2c(C#N)cnn2c1=O [Example 71]	4.5 nM
CC(C)c1c(-c2cnn(Cc3ccccc3)c2)[nH]c2c(C#N)cnn2c1=O [Example 72]	10 nM
CC(C)c1c(-c2cncc(Cl)c2)[nH]c2c(C#N)cnn2c1=O [Example 73]	7.3 nM
CC(C)c1c(-c2cncc(F)c2)[nH]c2c(C#N)cnn2c1=O [Example 74]	4 nM
C=C(C)c1[nH]c2c(C#N)cnn2c(=O)c1C(C)C [Example 75]	10 nM
C=Cc1[nH]c2c(C#N)cnn2c(=O)c1C(C)C [Example 76]	6 nM
CC(C)c1c(-c2ccnn2C)[nH]c2c(C#N)cnn2c1=O [Example 77]	12 nM
CC(C)c1c(-c2cc(CO)co2)[nH]c2c(C#N)cnn2c1=O [Example 78]	7.7 nM
CC(C)c1c(-c2cccc(C#N)c2)[nH]c2c(C#N)cnn2c1=O [Example 79]	13 nM
CC(C)c1c(-c2ccn[nH]2)[nH]c2c(C#N)cnn2c1=O [Example 80]	6.8 nM
CC(C)c1c(-c2ccco2)[nH]c2c(C#N)cnn2c1=O [Example 81]	6.5 nM
CC(C)c1c(C2=CCOC2)[nH]c2c(C#N)cnn2c1=O [Example 82]	12 nM
CC(C)c1c(-c2ccsc2)[nH]c2c(C#N)cnn2c1=O [Example 83]	12 nM
CC(C)c1c(-c2cccs2)[nH]c2c(C#N)cnn2c1=O [Example 84]	8.3 nM

SMILES	IC50
CC(C)c1c(-c2cnn(C)c2)[nH]c2c(C#N)cnn2c1=O [Example 85]	12 nM
Cc1ccc(-c2[nH]c3c(C#N)cnn3c(=O)c2C(C)C)o1 [Example 86]	4.5 nM
CC(C)c1c(-c2ccc(CO)o2)[nH]c2c(C#N)cnn2c1=O [Example 87]	7.5 nM
CC(C)c1c(-c2cccc(C(F)(F)F)c2)[nH]c2c(C#N)cnn2c1=O [Example 88]	14 nM
COc1cccc(-c2[nH]c3c(C#N)cnn3c(=O)c2C(C)C)c1 [Example 89]	10 nM
CC(C)c1c(-c2cccc(F)c2)[nH]c2c(C#N)cnn2c1=O [Example 90]	9 nM
CCc1c(-c2cn[nH]c2)[nH]c2c(C#N)cnn2c1=O [Example 92]	5.5 nM
CC(C)c1c(-c2cnn(S(C)(=O)=O)c2)[nH]c2c(C#N)cnn2c1=O [Example 93]	13 nM
CC(C)c1c(-c2cnn(C3CCCC3)c2)[nH]c2c(C#N)cnn2c1=O [Example 94]	12 nM
CC(C)c1c(-c2cnn(Cc3ccsc3)c2)[nH]c2c(C#N)cnn2c1=O [Example 95]	11 nM
CC(C)c1c(-c2ccc(Cl)c(C(=O)N3CCOCC3)c2)[nH]c2c(C#N)cnn2c1=O [Example 96]	34 nM
CC(C)c1c(-c2ccc(C(=O)NC3CCCC3)c(Cl)c2)[nH]c2c(C#N)cnn2c1=O [Example 97]	38 nM
CC(C)c1c(-c2cnn(C(C)(C)CO)c2)[nH]c2c(C#N)cnn2c1=O [Example 98]	37 nM
COc1cccc(Cn2cc(-c3[nH]c4c(C#N)cnn4c(=O)c3C(C)C)cn2)c1 [Example 99]	6 nM
CC(C)c1c(-c2cnn(Cc3ccncc3)c2)[nH]c2c(C#N)cnn2c1=O [Example 100]	8 nM
CC(C)c1c(-c2cnn(Cc3ccccc3Cl)c2)[nH]c2c(C#N)cnn2c1=O [Example 101]	8.5 nM
CC(C)c1c(-c2cnn(Cc3cccc(Oc4ccccc4)c3)c2)[nH]c2c(C#N)cnn2c1=O [Example 102]	10 nM
CC(C)c1c(-c2cnn(Cc3ccc(Oc4ccccc4)cc3)c2)[nH]c2c(C#N)cnn2c1=O [Example 103]	5.5 nM
CC(C)c1c(-c2cnn(C3CCCCC3)c2)[nH]c2c(C#N)cnn2c1=O [Example 104]	21 nM
CC(C)c1c(-c2cnn(C(C)c3ccccc3)c2)[nH]c2c(C#N)cnn2c1=O (stereo not shown) [Example 105]	8 nM
CC(C)c1c(-c2cnn(C3CCC3)c2)[nH]c2c(C#N)cnn2c1=O [Example 106]	18 nM
CCC(C)n1cc(-c2[nH]c3c(C#N)cnn3c(=O)c2C(C)C)cn1 (stereo not shown) [Example 107]	19 nM

SMILES	IC50
CC(C)c1c(-c2ccc(F)c(C(=O)N3CCCC3)c2)[nH]c2c(C#N)cnn2c1=O [Example 108]	28 nM
CC(C)c1c(-c2ccn(S(=O)(=O)C3CC3)n2)[nH]c2c(C#N)cnn2c1=O [Example 109]	11 nM
CC(C)c1c(-c2ccn(C(=O)C3CC3)n2)[nH]c2c(C#N)cnn2c1=O [Example 110]	7 nM
CC(C)c1c(-c2cnn(CCC3CC3)c2)[nH]c2c(C#N)cnn2c1=O [Example 111]	15 nM
COC(=O)c1c(-c2ccccc2)[nH]c2c(C#N)cnn2c1=O [Example 112]	330 nM
CC(C)c1c(-c2cnn(Cc3cccc(-c4ccccc4)c3)c2)[nH]c2c(C#N)cnn2c1=O [Example 113]	6 nM
CC(C)c1c(-c2cnn(CCc3ccccc3)c2)[nH]c2c(C#N)cnn2c1=O [Example 114]	5.5 nM
COc1ccccc1Cn1cc(-c2[nH]c3c(C#N)cnn3c(=O)c2C(C)C)cn1 [Example 115]	6 nM
COc1ccc(Cn2cc(-c3[nH]c4c(C#N)cnn4c(=O)c3C(C)C)cn2)cc1 [Example 116]	8 nM
CC(C)c1c(-c2cnn(C(C)(C)C)c2)[nH]c2c(C#N)cnn2c1=O [Example 117]	14 nM
Cc1ccc(-c2[nH]c3c(C#N)cnn3c(=O)c2C(C)C)cc1C [Example 118]	15 nM
CCOc1ccc(-c2[nH]c3c(C#N)cnn3c(=O)c2C(C)C)cc1Cl [Example 119]	19 nM
COc1ccc(-c2[nH]c3c(C#N)cnn3c(=O)c2C(C)C)cc1C [Example 120]	19 nM
Cc1nc2cc(-c3[nH]c4c(C#N)cnn4c(=O)c3C(C)C)ccc2s1 [Example 121]	10 nM
CC(C)c1c(-c2cnn(Cc3ccccc3Oc3ccccc3)c2)[nH]c2c(C#N)cnn2c1=O [Example 122]	13 nM
CC(C)c1c(-c2cnn(S(=O)(=O)c3ccccc3)c2)[nH]c2c(C#N)cnn2c1=O [Example 123]	8 nM
CC(C)c1c(-c2cnn(C(=O)c3ccccc3)c2)[nH]c2c(C#N)cnn2c1=O [Example 124]	11 nM
CC(C)c1c(-c2cnn(C(c3ccccc3)c3ccccc3)c2)[nH]c2c(C#N)cnn2c1=O [Example 125]	30 nM
CC(C)c1c(-c2cnn(Cc3ccccc3-c3ccccc3)c2)[nH]c2c(C#N)cnn2c1=O [Example 126]	8 nM
CC(C)c1c(-c2cnn(CC3CCCCC3)c2)[nH]c2c(C#N)cnn2c1=O [Example 127]	13 nM
CC(C)c1c(-c2cnn(Cc3cccnc3)c2)[nH]c2c(C#N)cnn2c1=O [Example 128]	16 nM
C=Cc1c(-c2ccccc2)[nH]c2c(C#N)cnn2c1=O [Example 129]	23 nM

SMILES	IC50
CC(C)c1c(-c2cc3ccccc3o2)[nH]c2c(C#N)cnn2c1=O [Example 130]	4.5 nM
CC(C)c1c(/C=C/c2ccccc2)[nH]c2c(C#N)cnn2c1=O [Example 131]	18 nM
CCc1ccc(-c2[nH]c3c(C#N)cnn3c(=O)c2C(C)C)o1 [Example 132]	7.2 nM
COCCn1cc(-c2[nH]c3c(C#N)cnn3c(=O)c2C(C)C)cn1 [Example 133]	11 nM
CC(C)c1c(-c2cnn(Cc3cccc4ccccc34)c2)[nH]c2c(C#N)cnn2c1=O [Example 134]	5.5 nM
CC(C)c1c(-c2cnn(Cc3ccc(-c4ccccc4)cc3)c2)[nH]c2c(C#N)cnn2c1=O [Example 135]	5.8 nM
CC(C)c1c(-c2cccc(Oc3ccccc3)c2)[nH]c2c(C#N)cnn2c1=O [Example 136]	9 nM
CC(C)c1c(C#Cc2ccccc2)[nH]c2c(C#N)cnn2c1=O [Example 137]	12 nM
CC(C)c1c(-c2ccc(Cl)c(Cl)c2)[nH]c2c(C#N)cnn2c1=O [Example 138]	15 nM
COc1ccc(-c2[nH]c3c(C#N)cnn3c(=O)c2C(C)C)cc1Cl [Example 139]	13 nM
COc1cc(-c2[nH]c3c(C#N)cnn3c(=O)c2C(C)C)ccc1C [Example 140]	12 nM
CC(C)c1c(-c2cnn(Cc3cscn3)c2)[nH]c2c(C#N)cnn2c1=O [Example 141]	9.3 nM
CC(C)c1c(-c2ccc3[nH]ncc3c2)[nH]c2c(C#N)cnn2c1=O [Example 142]	12 nM
COc1ccc(-c2[nH]c3c(C#N)cnn3c(=O)c2C(C)C)cc1OC [Example 143]	25 nM
COc1c(C)cc(-c2[nH]c3c(C#N)cnn3c(=O)c2C(C)C)cc1C [Example 144]	19 nM
CC(C)c1c(-c2cnn(C3COC3)c2)[nH]c2c(C#N)cnn2c1=O [Example 145]	17 nM
CC(C)c1c(-c2cnn(CCN(C)C)c2)[nH]c2c(C#N)cnn2c1=O [Example 149]	6 nM
Cc1ccc(-c2[nH]c3c(C#N)cnn3c(=O)c2C(C)C)cc1C#N [Example 150]	14 nM
CC(C)c1c(-c2ccc3c(c2)OCO3)[nH]c2c(C#N)cnn2c1=O [Example 151]	17 nM
CC(C)c1c(-c2ccc3c(c2)CCO3)[nH]c2c(C#N)cnn2c1=O [Example 152]	14 nM
CC(C)c1c(-c2cnn(Cc3cccc(F)c3)c2)[nH]c2c(C#N)cnn2c1=O [Example 154]	6 nM
